Among the data in patent publication US5760241A, “Thiol derivatives with metallopeptidase inhibitory activity” (priority 1996, dated 1998) are IC50 values, retold here.

By IC50 is commonly meant the concentration needed to halve the response being measured. A high value points to weaker potency in that assay.

This test has as its target T1, NEP (membranes from rat kidney cortex) (Rattus norvegicus, UniProt P07861).
T1 construct: from tissue; host or cells: kidney cortex membranes of male Sprague-Dawley rats
T1 sequence (P07861 1-750): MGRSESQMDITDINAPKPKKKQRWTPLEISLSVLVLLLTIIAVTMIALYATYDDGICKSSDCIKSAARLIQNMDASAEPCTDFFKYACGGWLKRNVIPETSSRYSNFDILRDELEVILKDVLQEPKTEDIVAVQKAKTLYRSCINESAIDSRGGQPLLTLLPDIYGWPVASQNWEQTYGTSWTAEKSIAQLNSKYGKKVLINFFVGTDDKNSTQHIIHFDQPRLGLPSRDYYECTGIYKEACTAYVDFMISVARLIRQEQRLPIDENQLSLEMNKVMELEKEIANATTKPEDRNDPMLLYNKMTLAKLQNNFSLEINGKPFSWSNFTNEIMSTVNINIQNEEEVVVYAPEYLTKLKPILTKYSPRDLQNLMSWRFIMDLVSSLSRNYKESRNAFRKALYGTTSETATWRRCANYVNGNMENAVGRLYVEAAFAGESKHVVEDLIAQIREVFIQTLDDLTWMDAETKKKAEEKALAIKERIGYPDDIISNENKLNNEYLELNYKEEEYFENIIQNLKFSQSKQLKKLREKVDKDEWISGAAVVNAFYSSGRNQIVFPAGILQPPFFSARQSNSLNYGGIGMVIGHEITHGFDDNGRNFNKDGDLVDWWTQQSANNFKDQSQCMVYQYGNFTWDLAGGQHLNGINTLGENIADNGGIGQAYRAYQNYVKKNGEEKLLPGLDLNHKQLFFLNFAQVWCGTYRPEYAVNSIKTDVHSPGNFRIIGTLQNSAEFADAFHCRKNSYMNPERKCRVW
Put plainly: In vitro NEP-inhibitory activity in rat kidney cortex membranes ([3H][Leu5]-enkephaline substrate). Format: biochemical, male Sprague-Dawley rats. Conditions: 20 minutes at 30° C.; [3H][Leu5]-enkephaline 15 nM. Here is the method: a) NEP-inhibitory activity
The NEP-inhibitory activity was evaluated in membranes from rat kidney cortex prepared according to the procedure described by T. Maeda et al. in Biochim. Biophys. Acta 1983, 731(1), 115-120.
By working at 0°-4° C., kidneys were removed from male Sprague-Dawley rats weighing approximately 300 g.
Cortex was carefully dissected, finely minced and suspended in a homogenization buffer (10 mM sodium phosphate pH 7.4 containing 1 mM MgCl2, 30 mM NaCl, 0.02% NaN3) 1:15 weight/volume.
The tissue was then homogenized for 30 seconds using an Ultra-Turrax homogenizer.
Approximately 10 ml of homogenate were layered over 10 ml of sucrose (41% weight/volume) and centrifuged at 31200 rpm for 30 minutes at 4° C. in a fixed angle rotor. The membranes were collected from the buffer/sucrose interface, washed twice with 50 mM TRIS/HCl buffer (pH 7.4) and resuspended into the same buffer for storage.
The membranes were stored in small aliquots at -80° C. until use.
The NEP-inhibitory activity was evaluated according to the method described by C. Llorens et al., in Eur. J. Pharmacol., 69, (1981), 113-116, as reported hereinafter.
Aliquots of the membrane suspension prepared as above described (concentration 5 μg/ml of proteins) were preincubated in the presence of an aminopeptidase inhibitory (Bestatin--1 mM) for 10 minutes at 30° C.
[^3 H][Leu^5 ]-enkephaline (15 nM) and buffer TRIS/HCl pH 7.4 (50 mM) were added in order to obtain a final volume of 100 μl.
Incubation (20 minutes at 30° C.) was stopped by adding HCl 0.1M (100 μl).
The formation of the metabolite [^3 H]Tyr-Gly-Gly was quantified by chromatography on polystyrene columns (Porapak Q).

As for `O=C(N[C@@H](Cc1ccc(-c2ccccc2)cc1)C(=O)O)C(CS)Cc1ccccc1` (stereo partly shown) [compound 41], half-maximal inhibition (IC50) required 5 nM.
